Where a SMILES comes first, the peptide text is derived from it. [ ]: non-standard residue; d: D form. The star is where a group is joined. NHCH2CH2OH = OCCN*; For = O=C*
Legend:
[1] = H+/Na+ transport assay of bead-derived peptides (one-point); format: biochemical; set-up: key: relative activity; mean of two control wells = 1.00; conditions: bead-derived peptide solution, EYPC/EYPG LUVs;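 note: relative to parent gramicidin A activity set to 1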
Procedure, shortened: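 Values are normalized fluorescence, with Triton X-100 defining 100% and untreated LUVs 0%, and the two control wells averaging 1.00. Vesicles carried 1.0 mM pyranine and included egg yolk phosphatidylglycerol. Peptides were incubated with them 30 min at room temperature.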

[2] = test system: P388 mouse leukemia cells; conditions: 92 h
Procedure, shortened: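 P388 cells at 1 × 10^4 cells/mL (final) were exposed to library peptides (stocks diluted 250-fold in RPMI1640/10% FBS) for 92 h at 37 °C, 5% CO2. Viable cells were counted by WST-1/1-methoxy PMS (4 h), absorbance 415 nm, and expressed as cell viability (%).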

[3] = test system: Streptococcus pyogenes SSI-9; assay: Antibacterial activity assay of bead-derived peptides (three concentrations); format: cell-based; set-up: key: +++: inhibition by the 640-fold diluted peptide solution; ++: inhibition by the 160-fold diluted solution; +: inhibition by the 40-fold diluted solution; -: no inhibition; conditions: S. pyogenes, bead-derived peptide solution, three concentrations
Procedure, shortened: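 Library peptide stock applied undiluted, 4-fold and 16-fold diluted in DMSO to S. pyogenes SSI-9 (2 × 10^5 CFU) in cation-adjusted Mueller Hinton broth with 5% laked horse blood. After 18 h at 37 °C, growth judged by visible cell precipitation.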

CC(C)C[C@@H](NC(=O)[C@H](C)NC(=O)CNC(=O)[C@@H](NC=O)C(C)C)C(=O)N[C@@H](C)C(=O)N[C@@H](C(=O)N[C@H](C(=O)N[C@H](CC(C)C)C(=O)N[C@@H](Cc1c[nH]c2ccccc12)C(=O)N[C@@H](C(=O)N[C@@H](Cc1c[nH]c2ccccc12)C(=O)N[C@@H](C(=O)N[C@@H](Cc1c[nH]c2ccccc12)C(=O)N[C@@H](C(=O)N[C@@H](Cc1c[nH]c2ccccc12)C(=O)NCCO)C(C)C)C(C)C)C(C)C)C(C)C)C(C)C [compound 8796] (For-VGA[dL]A[dV]V[dL]W[dV]W[dV]W[dV]W-NHCH2CH2OH)
H+/Na+ transport activity normalized against the value of 1 (1.00) [1]: 1.15 | cell viability/% [2]: 74.1% | antibacterial activity [3]: +

CNC(=O)C[C@@H](NC(=O)[C@@H](NC(=O)[C@H](NC(=O)[C@H](C)NC(=O)[C@@H](CC(C)C)NC(=O)[C@H](C)NC(=O)CNC(=O)[C@@H](NC=O)C(C)C)C(C)C)C(C)C)C(=O)N[C@@H](Cc1c[nH]c2ccccc12)C(=O)N[C@H](CC(C)C)C(=O)N[C@@H](Cc1c[nH]c2ccccc12)C(=O)N[C@H](CC(C)C)C(=O)N[C@@H](Cc1c[nH]c2ccccc12)C(=O)N[C@@H](C(=O)N[C@@H](Cc1c[nH]c2ccccc12)C(=O)NCCO)C(C)C [compound 8831] (For-VGA[dL]A[dV]V[dD](NHMe)W[dL]W[dL]W[dV]W-NHCH2CH2OH)
H+/Na+ transport activity normalized against the value of 1 (1.00) [1]: 1.23 | cell viability/% [2]: 81.1% | antibacterial activity [3]: -

CC(C)C[C@@H](NC(=O)[C@H](C)NC(=O)CNC(=O)[C@@H](NC=O)C(C)C)C(=O)N[C@@H](C)C(=O)N[C@H](CC(C)C)C(=O)N[C@H](C(=O)N[C@@H](C(=O)N[C@@H](Cc1c[nH]c2ccccc12)C(=O)N[C@@H](C(=O)N[C@@H](Cc1c[nH]c2ccccc12)C(=O)N[C@H](CC(C)C)C(=O)N[C@@H](Cc1c[nH]c2ccccc12)C(=O)N[C@H](CC(C)C)C(=O)N[C@@H](Cc1c[nH]c2ccccc12)C(=O)NCCO)C(C)C)C(C)C)C(C)C [compound 8858] (For-VGA[dL]A[dL]V[dV]W[dV]W[dL]W[dL]W-NHCH2CH2OH)
H+/Na+ transport activity normalized against the value of 1 (1.00) [1]: 1.05 | cell viability/% [2]: 84.7% | antibacterial activity [3]: +

CC(C)C[C@@H](NC(=O)[C@H](C)NC(=O)CNC(=O)[C@@H](NC=O)C(C)C)C(=O)N[C@@H](C)C(=O)N[C@@H](C(=O)N[C@H](C(=O)N[C@H](CC(C)C)C(=O)N[C@@H](Cc1c[nH]c2ccccc12)C(=O)N[C@@H](C(=O)N[C@@H](Cc1c[nH]c2ccccc12)C(=O)N[C@H](CC(C)C)C(=O)N[C@@H](Cc1c[nH]c2ccccc12)C(=O)N[C@@H](C(=O)N[C@@H](Cc1c[nH]c2ccccc12)C(=O)NCCO)[C@H](C)O)C(C)C)C(C)C)C(C)C [compound 8906] (For-VGA[dL]A[dV]V[dL]W[dV]W[dL]W[dT]W-NHCH2CH2OH)
H+/Na+ transport activity normalized against the value of 1 (1.00) [1]: 1.08 | cell viability/% [2]: 79.1% | antibacterial activity [3]: +

CC(C)C[C@@H](NC(=O)[C@H](C)NC(=O)[C@H](NC(=O)[C@H](C)NC(=O)CNC(=O)[C@@H](NC=O)C(C)C)C(C)C)C(=O)N[C@H](C(=O)N[C@@H](C(=O)N[C@@H](Cc1c[nH]c2ccccc12)C(=O)N[C@@H](C(=O)N[C@@H](Cc1c[nH]c2ccccc12)C(=O)N[C@@H](C(=O)N[C@@H](Cc1c[nH]c2ccccc12)C(=O)N[C@@H](C(=O)N[C@@H](Cc1c[nH]c2ccccc12)C(=O)NCCO)C(C)C)C(C)C)C(C)C)C(C)C)C(C)C [compound 8909] (For-VGA[dV]A[dL]V[dV]W[dV]W[dV]W[dV]W-NHCH2CH2OH)
H+/Na+ transport activity normalized against the value of 1 (1.00) [1]: 1.04 | cell viability/% [2]: 85.9% | antibacterial activity [3]: +

Source: publication PMC7531004, “Discovery of gramicidin A analogues with altered activities by multidimensional screening of a one-bead-one-compound library” (Nature Communications, 2020)
